Measured values as given in ChEMBL document CHEMBL1201862, “PubChem BioAssay data set” (2004).
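Tested at 5 concentrations; 48 h exposure; 96-well plates; endpoints linearly interpolated, else capped at highest concentration. Abbreviation: GI50, concentration required for 50% inhibition of growth.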 The source made the active and inactive calls. No stated cut-off is given here; in the data, active = GI50 up to about 1.1 µM and inactive = higher.

Columns and labels:
Test in all cases: growth of human tumour cells (NCI), 48 h
BT-549 = test system: BT-549
CAKI-1 = test system: CAKI-1
DU-145 = test system: DU-145
EKVX = test system: EKVX
HCC 2998 = test system: HCC 2998
HT-29 = test system: HT-29
Hs-578T = test system: Hs-578T
K562 = test system: K562
MCF7 = test system: MCF7
MDA-MB-231 = test system: MDA-MB-231
MDA-MB-435 = test system: MDA-MB-435
MDA-N = test system: MDA-N
NCI/ADR-RES = test system: NCI/ADR-RES
PC-3 = test system: PC-3
SF-295 = test system: SF-295
SR = test system: SR
TK-10 = test system: TK-10
U-251 = test system: U-251
UACC-257 = test system: UACC-257
786-0 = test system: 786-0
A498 = test system: A498
A549 = test system: A549
ACHN = test system: ACHN
COLO 205 = test system: COLO 205
HCT-116 = test system: HCT-116
HCT-15 = test system: HCT-15
HOP-62 = test system: HOP-62
HOP-92 = test system: HOP-92
IGROV-1 = test system: IGROV-1
KM12 = test system: KM12
LOX IMVI = test system: LOX IMVI
M14 = test system: M14
Malme-3M = test system: Malme-3M
NCI-H226 = test system: NCI-H226
NCI-H23 = test system: NCI-H23
NCI-H460 = test system: NCI-H460
NCI-H522 = test system: NCI-H522
OVCAR-3 = test system: OVCAR-3
OVCAR-4 = test system: OVCAR-4
OVCAR-5 = test system: OVCAR-5
OVCAR-8 = test system: OVCAR-8
RPMI-8226 = test system: RPMI-8226
RXF 393 = test system: RXF 393
SF-268 = test system: SF-268
SF-539 = test system: SF-539
SK-MEL-28 = test system: SK-MEL-28
SK-MEL-2 = test system: SK-MEL-2
SK-MEL-5 = test system: SK-MEL-5
SK-OV-3 = test system: SK-OV-3
SN12C = test system: SN12C
SNB-19 = test system: SNB-19
SNB-75 = test system: SNB-75
SW-620 = test system: SW-620
T47D = test system: T47D
UACC-62 = test system: UACC-62
UO-31 = test system: UO-31
MOLT-4 = test system: MOLT-4

SMILES: N=C(N)SCCc1ccccn1
- GI50 (BT-549): > 100 µM (inactive)
- GI50 (CAKI-1): > 100 µM (inactive)
- GI50 (DU-145): > 100 µM (inactive)
- GI50 (EKVX): 89.3 µM (inactive)
- GI50 (HCC 2998): > 100 µM (inactive)
- GI50 (HT-29): > 100 µM (inactive)
- GI50 (Hs-578T): > 100 µM (inactive)
- GI50 (K562): > 100 µM (inactive)
- GI50 (MCF7): > 100 µM (inactive)
- GI50 (MDA-MB-231): 55.2 µM (inactive)
- GI50 (MDA-MB-435): > 100 µM (inactive)
- GI50 (MDA-N): > 100 µM (inactive)
- GI50 (NCI/ADR-RES): > 100 µM (inactive)
- GI50 (PC-3): > 100 µM (inactive)
- GI50 (SF-295): > 100 µM (inactive)
- GI50 (SR): > 100 µM (inactive)
- GI50 (TK-10): > 100 µM (inactive)
- GI50 (U-251): 51.2 µM (inactive)
- GI50 (UACC-257): > 100 µM (inactive)

SMILES: Cc1ccc(Nc2[nH]c(=O)[nH]c(=O)c2C)cc1Cl
- GI50 (786-0): > 100 µM (inactive)
- GI50 (A498): > 100 µM (inactive)
- GI50 (A549): > 100 µM (inactive)
- GI50 (ACHN): > 100 µM (inactive)
- GI50 (BT-549): > 100 µM (inactive)
- GI50 (CAKI-1): 67.3 µM (inactive)
- GI50 (COLO 205): > 100 µM (inactive)
- GI50 (EKVX): 11 µM (inactive)
- GI50 (HCC 2998): > 100 µM (inactive)
- GI50 (HCT-116): > 100 µM (inactive)
- GI50 (HCT-15): 91.6 µM
- GI50 (HOP-62): > 100 µM (inactive)
- GI50 (HOP-92): 76 µM (inactive)
- GI50 (HT-29): > 100 µM (inactive)
- GI50 (Hs-578T): 70 µM (inactive)
- GI50 (IGROV-1): 78.5 µM (inactive)
- GI50 (K562): > 100 µM (inactive)
- GI50 (KM12): > 100 µM (inactive)
- GI50 (LOX IMVI): > 100 µM (inactive)
- GI50 (M14): > 100 µM (inactive)
- GI50 (MCF7): 19.5 µM (inactive)
- GI50 (MDA-MB-231): > 100 µM (inactive)
- GI50 (MDA-MB-435): > 100 µM (inactive)
- GI50 (MDA-N): > 100 µM (inactive)
- GI50 (Malme-3M): > 100 µM (inactive)
- GI50 (NCI-H226): > 100 µM (inactive)
- GI50 (NCI-H23): > 100 µM (inactive)
- GI50 (NCI-H460): > 100 µM (inactive)
- GI50 (NCI-H522): > 100 µM (inactive)
- GI50 (NCI/ADR-RES): > 100 µM (inactive)
- GI50 (OVCAR-3): 62.1 µM (inactive)
- GI50 (OVCAR-4): > 100 µM (inactive)
- GI50 (OVCAR-5): > 100 µM (inactive)
- GI50 (OVCAR-8): > 100 µM (inactive)
- GI50 (PC-3): 67.9 µM (inactive)
- GI50 (RPMI-8226): 58.5 µM (inactive)
- GI50 (RXF 393): > 100 µM (inactive)
- GI50 (SF-268): 87.7 µM (inactive)
- GI50 (SF-295): 26.2 µM (inactive)
- GI50 (SF-539): > 100 µM (inactive)
- GI50 (SK-MEL-28): > 100 µM (inactive)
- GI50 (SK-MEL-2): > 100 µM (inactive)
- GI50 (SK-MEL-5): 92 µM (inactive)
- GI50 (SK-OV-3): > 100 µM (inactive)
- GI50 (SN12C): > 100 µM (inactive)
- GI50 (SNB-19): > 100 µM (inactive)
- GI50 (SNB-75): 29.8 µM (inactive)
- GI50 (SW-620): > 100 µM (inactive)
- GI50 (T47D): > 100 µM (inactive)
- GI50 (TK-10): 91.8 µM (inactive)
- GI50 (U-251): > 100 µM (inactive)
- GI50 (UACC-257): > 100 µM (inactive)
- GI50 (UACC-62): 59.3 µM (inactive)
- GI50 (UO-31): 30.4 µM (inactive)

SMILES: O=C(CC(NC(=O)OCc1ccccc1)C(=O)NC1Cc2ccccc2C1=O)OCc1ccccc1 (configuration not stated)
- GI50 (786-0): > 100 µM (inactive)
- GI50 (A549): > 100 µM (inactive)
- GI50 (ACHN): > 100 µM (inactive)
- GI50 (BT-549): > 100 µM (inactive)
- GI50 (CAKI-1): > 100 µM (inactive)
- GI50 (DU-145): > 100 µM (inactive)
- GI50 (EKVX): > 100 µM (inactive)
- GI50 (HCC 2998): > 100 µM (inactive)
- GI50 (HCT-15): > 100 µM
- GI50 (HOP-62): > 100 µM (inactive)
- GI50 (HT-29): > 100 µM (inactive)
- GI50 (Hs-578T): 84.3 µM (inactive)
- GI50 (IGROV-1): > 100 µM (inactive)
- GI50 (K562): > 100 µM (inactive)
- GI50 (KM12): > 100 µM (inactive)
- GI50 (M14): > 100 µM (inactive)
- GI50 (MCF7): > 100 µM (inactive)
- GI50 (MDA-MB-435): > 100 µM (inactive)
- GI50 (MDA-N): > 100 µM (inactive)
- GI50 (MOLT-4): > 100 µM (inactive)
- GI50 (Malme-3M): > 100 µM (inactive)
- GI50 (NCI-H226): > 100 µM (inactive)
- GI50 (NCI-H23): > 100 µM (inactive)
- GI50 (NCI-H460): > 100 µM (inactive)
- GI50 (NCI-H522): > 100 µM (inactive)
- GI50 (NCI/ADR-RES): > 100 µM (inactive)
- GI50 (OVCAR-3): > 100 µM (inactive)
- GI50 (OVCAR-5): > 100 µM (inactive)
- GI50 (OVCAR-8): > 100 µM (inactive)
- GI50 (PC-3): > 100 µM (inactive)
- GI50 (RPMI-8226): > 100 µM (inactive)
- GI50 (RXF 393): > 100 µM (inactive)
- GI50 (SF-268): > 100 µM (inactive)
- GI50 (SF-295): > 100 µM (inactive)
- GI50 (SF-539): > 100 µM (inactive)
- GI50 (SK-MEL-28): > 100 µM (inactive)
- GI50 (SK-MEL-2): > 100 µM (inactive)
- GI50 (SK-MEL-5): > 100 µM (inactive)
- GI50 (SK-OV-3): > 100 µM (inactive)
- GI50 (SN12C): > 100 µM (inactive)
- GI50 (SNB-19): > 100 µM (inactive)
- GI50 (SNB-75): 59.3 µM (inactive)
- GI50 (SR): > 100 µM (inactive)
- GI50 (SW-620): > 100 µM (inactive)
- GI50 (TK-10): > 100 µM (inactive)
- GI50 (U-251): > 100 µM (inactive)
- GI50 (UACC-257): 86.5 µM (inactive)
- GI50 (UACC-62): > 100 µM (inactive)
- GI50 (UO-31): > 100 µM (inactive)
